Assay in all cases: DTP human tumour cell line panel, 48 h
Experiment [1] concerns SNB-78 CNS.
Experiment [2] has as its system M19-MEL melanoma.
Experiment [3] concerns DLD-1 colon.
Experiment [4] has as its system DMS 273 small cell lung.
The test system of experiment [5] is DMS 114 small cell lung.
Experiment [6] concerns MDA-MB-231 breast.
In experiment [7] the test system is PC-3 prostate.
Experiment [8] relates to MDA-MB-435.
In experiment [9] the test system is DU-145 prostate.
For experiment [10], the system named is HS 578T breast.

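Exposure lasted 48 hours, with cells grown in 96-well plates and compounds tested at five concentrations. Abbreviation: GI50, concentration required for 50% inhibition of growth. The concentration for full growth arrest is given as TGI.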

The values that follow come from PubChem BioAssay (NCI).

For `COc1ccccc1/C=C/C(=O)c1sc(-c2cccnc2)nc1C`, the TGI in experiment [1], in [2], in experiment [3], in experiment [4] and in experiment [5] was greater than 100 µM each time.
Regarding `CCN1C(C)=NC2C(=O)c3ccccc3C(=O)C21` (stereo not drawn), the TGI in [2], in experiment [4] and in experiment [5] was greater than 100 µM each time.
`COC(=O)C1=CC(O)CCC1c1ccc(OC)cc1` (stereo not drawn): the TGI in experiment [1], in [2], in [3], in experiment [4] and in experiment [5] was greater than 100 µM in each case.
As to `C=C(C)C1CC=C(C(=O)O)CC1` (stereo not drawn), the TGI is 2970 µM in experiment [2], greater than 5000 µM in experiment [3], greater than 5000 µM in experiment [4] and greater than 5000 µM in experiment [5].
On to `COc1ccc2cc(C(=O)c3ccccc3C(=O)O)ccc2c1`, for which the total growth inhibition concentration (TGI) in experiment [2], in experiment [3], in [4] and in experiment [5] was greater than 100 µM throughout.
Regarding `O=C(O)/C(Cl)=C(\Cl)Nc1cccc(C(F)(F)F)c1`, the TGI in [1], in experiment [2], in experiment [3], in [4] and in experiment [5] was greater than 100 µM each time.
With `CC[O-].CC[O-].[O-]c1ccccc1C=Nc1ccccc1.[O-]c1ccccc1C=Nc1ccccc1.[Ti+4]`, the GI50 is greater than 100 µM in experiment [1]; greater than 100 µM in experiment [2]; greater than 100 µM in experiment [3]; 21 µM in experiment [4]; 75.2 µM in [5]. The TGI in [1], in [2], in experiment [3], in experiment [4] and in experiment [5] was greater than 100 µM each time.
In the case of `C[C@]12CCC[C@H](OC=O)C1(O)C[C@H](C(=O)O)CC2` (stereo partly drawn), the TGI in [1], in experiment [2], in [3], in [4] and in experiment [5] was greater than 100 µM each time.
Take `CCc1ccccc1NC(=O)/C(CC(=O)c1c(C)n([O-])c2ccccc2[n+]1=O)=N\NS(=O)(=O)c1ccc(C)cc1`: the TGI was greater than 100 µM in experiment [1]; 46.7 µM in experiment [2]; greater than 100 µM in experiment [3]; greater than 100 µM in experiment [4]; 30.3 µM in experiment [5].
`C/C(CC(=O)CCCC(=O)Nc1ccc(Cl)cc1Cl)=N/NC(=O)CC#N`: the TGI in [1], in experiment [2], in experiment [3], in experiment [4] and in experiment [5] was greater than 100 µM throughout.
As for `CCCCCCCC[N+](C)(C)Cc1ccc(C[N+](C)(C)CCCCCCCC)cc1`, the TGI in [1] was greater than 100 µM; in [2] it was greater than 100 µM; in experiment [3], greater than 100 µM; in [4] it was 36.5 µM; in experiment [5] it was greater than 100 µM.
Regarding `Cc1cc(N(CCC#N)CCC#N)ccc1/C=C1/CN(N2C(=O)/C(=C/c3ccc(N(CCC#N)CCC#N)cc3C)N=C2c2ccccc2)C(c2ccccc2)=N1`, the TGI in experiment [1], in experiment [2], in experiment [3], in [4] and in experiment [5] was greater than 100 µM each time.
On to `CN1CCC23c4c5ccc(O)c4OC2C(=NN=C2CCC4(O)C6Cc7ccc(O)c8c7C4(CCN6C)C2O8)CCC3(O)C1C5` (stereo not drawn), for which the TGI in [2], in [3], in experiment [4] and in experiment [5] was greater than 100 µM throughout.
For the molecule `Cc1nc(NC(=S)NC(=O)c2ccc(Cl)c(Cl)c2)sc1C(=O)/C=C/c1ccccc1[N+](=O)[O-]`, the total growth inhibition concentration (TGI) in experiment [1] is 91.2 µM; in experiment [2] it was 79.7 µM; in experiment [3], greater than 100 µM; in experiment [4] it was 48.3 µM.
Turning to `CSc1ccc(-c2cn3ccsc3n2)c(O)c1`, the concentration for total growth inhibition (TGI) was greater than 100 µM in [1], greater than 100 µM in [3], greater than 100 µM in [4] and greater than 60.9 µM in [5].
`CN1C(=O)n2c(nc3ccccc32)C(N=[N+]=[N-])(N=[N+]=[N-])C1=O` (stereo not drawn): the TGI in [1], in experiment [2], in experiment [3], in experiment [4] and in [5] was greater than 100 µM throughout.
As to `CC(C#N)c1cn(S(=O)(=O)c2ccccc2)c2ccccc12` (stereo not drawn), the TGI in experiment [2], in experiment [3], in experiment [4] and in [5] was greater than 100 µM throughout.
Consider `CCC[CH2][Sn]1([CH2]CCC)[O]C(c2ccccn2)S(=O)(=O)[O]1` (stereo not drawn), for which the GI50 in experiment [1] is 1.6 µM; in experiment [2], 4.1 µM; in [3], 3.31 µM; in experiment [4], 3.29 µM. For the same molecule, the TGI in experiment [1] is 5.86 µM; in experiment [2] it was 14.4 µM; in [3] it was 12.7 µM; in experiment [4], 15.5 µM.
For `CCC1CCc2nc3sc(C(=O)Nc4ccccc4F)c(N)c3cc2C1` (stereo not drawn), the GI50 in experiment [6] was greater than 100 µM; in experiment [7], 18.8 µM; in experiment [8], 0.133 µM; in [9], 2.82 µM; in [10] it was 2.13 µM. The TGI is greater than 100 µM in experiment [6]; greater than 100 µM in experiment [7]; 0.562 µM in [8]; greater than 100 µM in experiment [9]; greater than 100 µM in experiment [10].
Consider `Cc1cc(N(CCOS(C)(=O)=O)CCOS(C)(=O)=O)ccc1C=Nc1ccc(-c2csc(-c3ccccc3)n2)c(Cl)c1`, for which the TGI was determined as 50.9 µM in [6]; 46.5 µM in [7]; 38 µM in experiment [8]; 35.6 µM in experiment [9]; 49.8 µM in experiment [10].
As to `CC1(C)CC23C(=O)N(c4ccccc4)C(=Nc4ccccc4)NC2=CC(C#N)=C(C#N)C3O1` (stereo not drawn), the total growth inhibition concentration (TGI) in experiment [1], in experiment [2], in experiment [3] and in experiment [5] was greater than 100 µM in each case.
In the case of `COC1=CC(=O)c2ccc(C(C)C)cc2C1(C)C1=NC(C)(C)CO1` (stereo not drawn), the TGI in experiment [2], in experiment [3], in experiment [4] and in experiment [5] was greater than 100 µM in each case.

Usually TGI stands for the concentration at which net growth stops. The low end stands for more potent growth arrest, the high end for less potent growth arrest. As a reminder, the GI50 is the concentration at which growth is held to half of that of the control.
